Measured values reported in patent US10793594B2, “Antimicrobial compounds and/or modulators of microbial infections and methods of using the same” (Indiana University Research and Technology Corporation, priority 2017, dated 2020).
Where a SMILES comes first, the peptide text is derived from it. [ ]: non-standard residue; d: D form. ξ: configuration not given here. ξPhe(3-F) = NC(Cc1cccc(F)c1)C(=O)O; ξPhe(4-F) = NC(Cc1ccc(F)cc1)C(=O)O

Tests used:
[1] = system: Ca and/or Cn (Candida albicans, Cryptococcus neoformans); experiment: CO-ADD preliminary screen and hit confirmation against fungi; type: cell-based; conditions: two replicated lots, mixtures of enantiomers or diastereomers; for preliminary activity against Ca and/or Cn (preliminary screen): single concentration
Experimental: (§1) Briefly, CO-ADD, The Community for Open Antimicrobial Drug Discovery, is a global open-access screening initiative launched in February 2015 to uncover significant and rich chemical diversity held outside of corporate screening collections. For screening, about 1 mg of pure compound is required and the compounds must be soluble in DMSO. In the preliminary screening, compounds are tested against some ESKAPE pathogens, including, but are not limited to, E. coli, K. pneumoniae, A. baumannii, P. aeruginosa, S. aureus (MRSA), as well as the fungi, for example, C. neoformans and C. albicans. The screen uses a single concentration (e.g., […]) and provides initial activity data to select compounds for further more detailed screening. Active compounds from the preliminary screening are tested in dose response antimicrobial assays to confirm their activity. Active compounds are screened for adverse effects, such as cytotoxicity, critical micelle concentration and membrane depolarization, as well as for their purity. Then, the hit compound is tested against a broader panel of microbes with multidrug-resistant (MDR) and pan-resistant bacterial strains and clinical isolates, with different co-factors (such as serum or lung surfactant). The hit validation includes initial ADMET screening, including haemolysis, microsome and plasma stability and protein binding. See CO-ADD website for more details.
(§2) The minimum inhibitory concentration (MIC) was determined following the CLSI (Clinical Laboratory and Standards Institute) guidelines, identifying the lowest concentration at which full inhibition of the bacteria or fungi has been detected. […] Note that MIC values are discrete values based on the concentration in a specific well.
(§3) Selection of Hits: Samples with MIC (≤16 μg/mL or ≤10 μM) are declared as a hit. For toxicity (cytotoxicity and haemolytic activity) all sample/s with CC50/HC10≤maximum tested concentration are considered active, or toxic. Since the maximum tested concentration is the same for toxicity and antimicrobial activity, no therapeutic index (MIC/CC50 or MIC/HC10) can be calculated and all sample/s with toxic activity are flagged.
Growth inhibition of C. albicans was determined measuring absorbance at 530 nm (OD530), while the growth inhibition of C. neoformans was determined measuring the difference in absorbance between 600 and 570 nm (OD600-570), after the addition of resazurin (0.001% final concentration) and incubation at 35° C. for additional 2 h. The absorbance was measured using a Biotek Synergy HTX plate reader. The percentage of growth inhibition was calculated for each well, using the negative control (media only) and positive control (bacteria without inhibitors) on the same plate as references. Percentage growth inhibition of an individual sample is calculated based on Negative controls (media only) and Positive Controls (bacterial/fungal media without inhibitors). Negative inhibition values indicate that the growth rate (or OD600) is higher compared to the Negative Control (Bacteria/fungi only, set to 0% inhibition). The growth rates for all bacteria and fungi has a variation of −/+10%, which is within the reported normal distribution of bacterial/fungal growth.
In addition, two values are used as quality controls for individual plates: Z′-Factor [1−(3*(sd(NegCtrl)+sd(PosCtrl))/(average(PosCtrl)−average(NegCtrl)))] and Standard Antibiotic controls at different concentrations (>MIC and <MIC). […] Active samples are defined as those with inhibition values equal to or above 80% and abs(Z-Score) above 12.51 for either replicate (n=2 on different plates) were classed as active. Partially active compounds are defined as those with inhibition values between 50.9%-79.9% or abs(Z-Score) below 12.51.
Samples were prepared in DMSO and water to a final testing concentration of 32 μg/mL or 20 μM and serially diluted 1:2 fold for 8 times. […]

[2] = system: Acinetobacter baumannii; experiment: CO-ADD preliminary screen and hit confirmation against Acinetobacter baumannii; type: cell-based; conditions: for hit confirmation against Acinetobacter baumannii: hit confirmation (HC), separated diastereomers; for activity against Acinetobacter baumannii in the preliminary screen: preliminary screen (PS)
Experimental: as §1, §2, §3
Referring now to FIGS. 52 and 53, inhibition of bacterial growth was determined measuring absorbance at 600 nm (OD600), using a Tecan M1000 Pro monochromator plate reader. The percentage of growth inhibition was calculated for each well, using the negative control (media only) and positive control (bacteria without inhibitors) on the same plate as references.
Samples were prepared in DMSO and water to a final testing concentration of 32 μg/mL or 20 μM and serially diluted 1:2 fold for 8 times. Each sample concentration was prepared in 384-well plates, non-binding surface plate (NBS; Corning 3640) for each bacterial/fungal strain or Tissue-culture treated (TC-treated; Corning 3712/3764) black for mammalian cell types, all in duplicate (n=2), and keeping the final DMSO concentration to a maximum of 0.5% DMSO. All the sample preparation was done using liquid handling robots.
For the antibacterial screening, all bacteria were cultured in Cation-adjusted Mueller Hinton broth (CAMHB) at 37° C. overnight. A sample of each culture was then diluted 40-fold in fresh broth and incubated at 37° C. for 1.5-3 h. The resultant mid-log phase cultures were diluted (CFU/mL measured by OD600), then added to each well of the compound containing plates, giving a cell density of 5×10^5 CFU/mL and a total volume of 50 μL. All the plates were covered and incubated at 37° C. for 18 h without shaking.

[3] = system: Cryptococcus neoformans (Cn); experiment: CO-ADD antimicrobial screening, growth of Cryptococcus neoformans (MIC); type: cell-based
Experimental: Briefly, CO-ADD, The Community for Open Antimicrobial Drug Discovery, is a global open-access screening initiative launched in February 2015 to uncover significant and rich chemical diversity held outside of corporate screening collections. For screening, about 1 mg of pure compound is required and the compounds must be soluble in DMSO. In the preliminary screening, compounds are tested against some ESKAPE pathogens, including, but are not limited to, E. coli, K. pneumoniae, A. baumannii, P. aeruginosa, S. aureus (MRSA), as well as the fungi, for example, C. neoformans and C. albicans. The screen uses a single concentration (e.g., […]) and provides initial activity data to select compounds for further more detailed screening. Active compounds from the preliminary screening are tested in dose response antimicrobial assays to confirm their activity. […]
The minimum inhibitory concentration (MIC) was determined following the CLSI (Clinical Laboratory and Standards Institute) guidelines, identifying the lowest concentration at which full inhibition of the bacteria or fungi has been detected. […]
Fungi strains were cultured for 3 days on Yeast Extract-Peptone Dextrose (YPD) agar at 30° C. A yeast suspension of 1×106 to 5×10^6 CFU/mL (as determined by OD530) was prepared from five colonies. […]

[4] = system: Pseudomonas aeruginosa (PA14); experiment: Pa biofilm formation/growth inhibition assay (crystal violet); type: cell-based; conditions: phenylalanine deficient biofilm assay
[5] = system: bacterial biofilms; conditions: cited from earlier work

Structure (SMILES): NCC(=O)NC(Cc1ccc(F)cc1)C(=O)O [compound 30, (2R,2S)-[2-(2-aminoacetamido)]-3-(4-fluorophenyl)propanoic acid] (H-Gly-[ξPhe(4-F)]-OH)
- preliminary activity against Ca and/or Cn (preliminary screen) [1]: preliminary activity

Structure (SMILES): O=C(O)C(Cc1cccc(F)c1)NC(=O)[C@@H]1CCCN1 (stereo partly drawn) [compound 48, (2R,2S)-[3-(3-fluorophenyl)]-2-((S)-pyrrolidine-2-carboxamido)propanoic acid] (H-Pro-[ξPhe(3-F)]-OH)
- preliminary activity against Ca and/or Cn (preliminary screen) [1]: preliminary activity

Structure (SMILES): C[C@H](N)C(=O)N[C@@H](Cc1cccc(F)c1)C(=O)O (single isomer, unassigned) [44a]
- hit confirmation against Acinetobacter baumannii [2]: hit confirmation was observed
- activity against Acinetobacter baumannii in the preliminary screen [2]: not seen

Structure (SMILES): C[C@H](N)C(=O)NC(Cc1cccc(F)c1)C(=O)O (stereo partly drawn) [compound 44, (2R,2S)-[2-((S)-2-aminopropanamido)]-3-(3-fluorophenyl)propanoic acid]
- activity against Ca and/or Cn confirmed (hit confirmation) [1]: confirmed

Structure (SMILES): C[C@H](N)C(=O)N[C@@H](Cc1ccc(F)cc1)C(=O)O (single isomer, unassigned) [25a]
- hit confirmation against Acinetobacter baumannii [2]: hit confirmation was observed
- activity against Acinetobacter baumannii in the preliminary screen [2]: not seen

Structure (SMILES): N[C@@H](Cc1ccc(O)cc1)C(=O)NC(Cc1cccc(F)c1)C(=O)O (stereo partly drawn) [compound 45, (2R,2S)-[2-((S)-2-amino-3-(4-hydroxyphenyl)propanamido)]-3-(3-fluorophenyl)propanoic acid]
- preliminary activity against Ca and/or Cn (preliminary screen) [1]: preliminary activity

Structure (SMILES): C[C@H](N)C(=O)NC(Cc1ccc(F)cc1)C(=O)O (stereo partly drawn) [compound 25, (2R,2S)-[2-((S)-2-aminopropanamido)]-3-(4-fluorophenyl)propanoic acid]
- inhibitory effects on the growth of Cryptococcus neoformans (Cn) [3]: exhibited inhibitory effects
- ability to inhibit the growth of P. aeruginosa (Pa) in a biofilm assay [4]: potent ability to inhibit the growth
- activity against Ca and/or Cn confirmed (hit confirmation) [1]: confirmed

Structure (SMILES): NCC(=O)NC(Cc1cccc(F)c1)C(=O)O [compound 43, (2R,2S)-[2-(2-aminoacetamido)]-3-(3-fluorophenyl)propanoic acid] (H-Gly-[ξPhe(3-F)]-OH)
- preliminary activity against Ca and/or Cn (preliminary screen) [1]: preliminary activity

Structure (SMILES): C[C@H](N)C(=O)NC(Cc1ccccc1F)C(=O)O (stereo partly drawn) [compound 36, (2R,2S)-[2-((S)-2-aminopropanamido)-3-(2-fluorophenyl)]propanoic acid]
- inhibitory effects on the growth of Cryptococcus neoformans (Cn) [3]: exhibited inhibitory effects
- ability to inhibit the growth of P. aeruginosa (Pa) in a biofilm assay [4]: potent ability to inhibit the growth
- activity against Ca and/or Cn confirmed (hit confirmation) [1]: confirmed

Structure (SMILES): N[C@@H](Cc1ccc(O)cc1)C(=O)N[C@@H](Cc1cccc(F)c1)C(=O)O (single isomer, unassigned) [45a]
- hit confirmation against Acinetobacter baumannii [2]: hit confirmation was observed
- activity against Acinetobacter baumannii in the preliminary screen [2]: not seen

Structure (SMILES): C[C@@H](O)[C@H](N)C(=O)NC(Cc1ccc(F)cc1)C(=O)O (stereo partly drawn) [compound 108, (2R,2S)-[((2S,3R)-2-amino-3-hydroxybutanamido)]-3-(4-fluorophenyl)propanoic acid] (H-Thr-[ξPhe(4-F)]-OH)
- ability to inhibit the growth of P. aeruginosa (Pa) in a biofilm assay [4]: had shown activity

Structure (SMILES): CC(C)C[C@H](N)C(=O)NC(Cc1cccc(F)c1)C(=O)O (stereo partly drawn) [compound 46, (2R,2S)-[2-((S)-2-amino-4-methylpentanamido)]-3-(3-fluorophenyl)propanoic acid]
- preliminary activity against Ca and/or Cn (preliminary screen) [1]: preliminary activity

Structure (SMILES): N[C@H](Cc1ccc(O)cc1)C(=O)O [D-Tyrosine]
- trigger for the disassembly of bacterial biofilms [5]: particularly active

Structure (SMILES): N[C@H](C(=O)NC(Cc1cccc(F)c1)C(=O)O)c1ccccc1 (stereo partly drawn) [compound 52, (2R,2S)-[2-((S)-2-amino-2-phenylacetamido)]-3-(3-fluorophenyl)propanoic acid]
- preliminary activity against Ca and/or Cn (preliminary screen) [1]: preliminary activity
